Assay [1] concerns the target T1, P5CS, endogenous in H9c2 cardiomyocytes (Rattus norvegicus, UniProt A0A8I6AAN3).
T1 construct: gene Aldh18a1; native endogenous protein in H9c2 cell lysate; no tag; detected by Western blot
Nature of the assay: CETSA, Western blot. It counts as biochemical. Conditions: H9c2 cell lysate, 20 μM carnosol, 30 min room temperature then 1 h at 4 °C; heated 5 min. On the technique in general: Immunoblotting shows a protein as a band on a membrane.

The target in a further assay is T2, GFP-Aldh18a1 (P5CS) (Mus musculus, UniProt Q9Z110).
T2 construct: GFP fusion from plasmid, tag kept; expressed in 293T cells, used as NP40 lysate
T2 sequence (Q9Z110 1-795): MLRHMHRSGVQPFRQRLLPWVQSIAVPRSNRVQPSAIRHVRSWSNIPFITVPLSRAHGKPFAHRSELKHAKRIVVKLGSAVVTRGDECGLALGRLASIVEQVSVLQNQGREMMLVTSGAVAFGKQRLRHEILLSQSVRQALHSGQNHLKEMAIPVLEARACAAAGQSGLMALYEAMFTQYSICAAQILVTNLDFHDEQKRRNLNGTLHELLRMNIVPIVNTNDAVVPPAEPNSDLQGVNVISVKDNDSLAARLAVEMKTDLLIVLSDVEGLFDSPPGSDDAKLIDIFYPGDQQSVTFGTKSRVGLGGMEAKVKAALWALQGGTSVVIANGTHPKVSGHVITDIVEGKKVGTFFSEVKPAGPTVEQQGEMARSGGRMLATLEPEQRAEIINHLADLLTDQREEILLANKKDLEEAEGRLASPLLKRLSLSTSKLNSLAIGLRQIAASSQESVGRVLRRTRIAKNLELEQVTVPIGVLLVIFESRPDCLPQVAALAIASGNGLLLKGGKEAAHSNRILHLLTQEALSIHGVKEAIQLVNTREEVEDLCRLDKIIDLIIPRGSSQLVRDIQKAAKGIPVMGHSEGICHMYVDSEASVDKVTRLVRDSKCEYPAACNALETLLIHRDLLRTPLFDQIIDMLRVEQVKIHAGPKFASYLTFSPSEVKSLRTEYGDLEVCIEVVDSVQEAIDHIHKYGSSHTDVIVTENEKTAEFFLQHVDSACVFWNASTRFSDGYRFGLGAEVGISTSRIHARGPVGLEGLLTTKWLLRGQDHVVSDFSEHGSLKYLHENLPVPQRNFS
Nature of the assay: microscale thermophoresis (Monolith NT.[…]). It counts as binding. For orientation: MST reads how a fluorescent partner responds to local heating, with and without ligand.

For assay [2], the target named is T3, P5CS (Aldh18a1), endogenous in C2C12 myotubes (Mus musculus, UniProt Q9Z110).
T3 construct: native endogenous protein in C2C12 myotubes; no tag; detected by Western blot
T3 sequence (Q9Z110 1-795): T2 sequence (Q9Z110 1-795)
Nature of the assay: CETSA, Western blot. The assay is classed as cell-based. Conditions: intact C2C12 myotubes, 20 μM carnosol, 1 h; NP40 lysate heated 5 min.

In general, Kd refers to the equilibrium constant for the complex coming apart. High values mean lower affinity, low ones higher affinity.

T1 sequence (A0A8I6AAN3 1-795): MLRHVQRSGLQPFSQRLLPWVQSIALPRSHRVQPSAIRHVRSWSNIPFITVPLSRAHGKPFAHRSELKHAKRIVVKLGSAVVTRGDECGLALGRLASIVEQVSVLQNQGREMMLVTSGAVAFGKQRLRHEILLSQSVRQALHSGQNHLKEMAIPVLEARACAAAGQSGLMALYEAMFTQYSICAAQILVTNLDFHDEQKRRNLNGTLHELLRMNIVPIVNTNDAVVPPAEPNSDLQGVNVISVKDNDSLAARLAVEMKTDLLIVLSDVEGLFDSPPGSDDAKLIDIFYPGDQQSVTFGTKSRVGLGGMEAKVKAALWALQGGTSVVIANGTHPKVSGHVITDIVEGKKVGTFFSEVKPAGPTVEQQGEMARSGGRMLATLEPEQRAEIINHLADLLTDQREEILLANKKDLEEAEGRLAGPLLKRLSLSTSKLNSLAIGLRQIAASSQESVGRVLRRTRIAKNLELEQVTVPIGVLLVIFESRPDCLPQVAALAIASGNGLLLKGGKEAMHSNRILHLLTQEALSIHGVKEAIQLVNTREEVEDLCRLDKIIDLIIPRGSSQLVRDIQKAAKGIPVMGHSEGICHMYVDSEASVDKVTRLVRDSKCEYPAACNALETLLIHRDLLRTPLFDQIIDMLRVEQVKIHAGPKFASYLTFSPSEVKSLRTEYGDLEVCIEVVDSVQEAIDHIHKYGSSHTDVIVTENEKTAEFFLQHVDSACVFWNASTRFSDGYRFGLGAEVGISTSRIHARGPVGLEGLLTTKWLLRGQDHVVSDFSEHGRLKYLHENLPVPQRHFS

As for `CC(C)c1cc2c(c(O)c1O)[C@@]13CCCC(C)(C)[C@@H]1C[C@@H]2OC3=O` [carnosol], the thermal stability entry was “H9c2 cardiomyocytes also showed similar results that carnosol increased the thermal stability of P5CS” in assay [1] and “the thermal stability of P5CS in C2C12 was improved after the incubation of myotubes with carnosol” in assay [2]. This compound also registered a Kd at GFP-Aldh18a1 (P5CS) of 17.4 µM.

The record behind these values is article PMC10799341, “Carnosol ameliorated cancer cachexia-associated myotube atrophy by targeting P5CS and its downstream pathways” (Frontiers in Pharmacology, 2024).
